Measurements published in the supplement of paper PMC9386025.

Tests used:
Test in all cases: drug sensitivity score (DSS) (DSS (dimensionless)); higher = more sensitive (stronger drug response)
Kuramochi = tested on: Kuramochi
Procedure, shortened: (§1)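 Cells, either patient-derived cultures or ovarian cancer cell lines given 100 ng/ml doxycycline for no less than three days to induce shRNA, went into 384-well plates at 1 000 – 1 500 per well over drugs pre-plated in five concentrations across a 10,000-fold range. The plates were held for three days at 37 °C with 5.0 % CO2. Cell viability was then taken from CellTiter-Glo luminescence on a PHERAstar FS. For each drug, a drug sensitivity score from its dose-response curve was obtained by a method described earlier.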

OVSAHO = tested on: OVSAHO
Procedure, shortened: as §1

FIMM-PDC5 = patient-derived ovarian cancer cells; conditions: genetic perturbation: none (patient-derived cell culture)
Procedure, shortened: as §1

FIMM-PDC1 = patient-derived ovarian cancer cells; conditions: genetic perturbation: none (patient-derived cell culture)
Procedure, shortened: as §1

JHOS2 = tested on: JHOS2
Procedure, shortened: as §1

FIMM-PDC7 = patient-derived ovarian cancer cells; conditions: genetic perturbation: none (patient-derived cell culture)
Procedure, shortened: as §1

FIMM-PDC3 = patient-derived ovarian cancer cells; conditions: genetic perturbation: none (patient-derived cell culture)
Procedure, shortened: as §1

FIMM-PDC4 = patient-derived ovarian cancer cells; conditions: genetic perturbation: none (patient-derived cell culture)
Procedure, shortened: as §1

FIMM-PDC6 = patient-derived ovarian cancer cells; conditions: genetic perturbation: none (patient-derived cell culture)
Procedure, shortened: as §1

[1] = genetic perturbation: DOX-induced PTK7 shRNA knockdown
[2] = genetic perturbation: DOX-induced control shRNA

SMILES	drug sensitivity score (Kuramochi; [1])	drug sensitivity score (Kuramochi; [2])	drug sensitivity score (OVSAHO; [1])	drug sensitivity score (OVSAHO; [2])	drug sensitivity score (FIMM-PDC5)	drug sensitivity score (FIMM-PDC1)	drug sensitivity score (JHOS2; [1])	drug sensitivity score (JHOS2; [2])	drug sensitivity score (FIMM-PDC7)	drug sensitivity score (FIMM-PDC3)	drug sensitivity score (FIMM-PDC4)	drug sensitivity score (FIMM-PDC6)
C#Cc1cccc(Nc2ncnc3cc(OCCOC)c(OCCOC)cc23)c1 [Erlotinib]	1.5	3	15.1	2.4	17.2	3.3	1.2	3.5	10	11.3	12	12.1
COc1cc([C@@H]2c3cc4c(cc3[C@@H](O[C@@H]3O[C@@H]5CO[C@@H](C)O[C@H]5[C@H](O)[C@H]3O)[C@H]3COC(=O)[C@H]23)OCO4)cc(OC)c1O [Etoposide]	0.5	2	2.7	< 0	1.9	2.55	4.7	2.1	1	4.8	1.8	2.9
CO[C@H]1C[C@@H]2CC[C@@H](C)[C@@](O)(O2)C(=O)C(=O)N2CCCC[C@H]2C(=O)O[C@H]([C@H](C)C[C@@H]2CC[C@@H](OCCO)[C@H](OC)C2)CC(=O)[C@H](C)/C=C(\C)[C@@H](O)[C@@H](OC)C(=O)[C@H](C)C[C@H](C)/C=C/C=C/C=C/1C [Everolimus]	4.1	2.2	0.9	6.2	8.3	< 0	< 0	3	0.4	2.7	5.3	< 0
CCn1c(=O)c(-c2ccc(Cl)cc2Cl)cc2cnc(Nc3ccc(N4CCNCC4)c(F)c3)nc21 [FRAX486]	3.7	7.6	10.8	4.8	14.7	4.5	4.5	8	6.5	6.5	9.3	9.7
Cc1cnc(Nc2ccc(OCCN3CCCC3)cc2)nc1Nc1cccc(S(=O)(=O)NC(C)(C)C)c1 [Fedratinib]	8.8	8.7	7.2	8.8	10.7	3.65	8.5	9.1	2.9	4.3	7	3
CON(C)C(=O)N1N=C(c2cc(F)ccc2F)S[C@@]1(CCCN)c1ccccc1 [Filanesib]	10.3	1.1	7.8	6.8	17.4	6.65	9.2	3	2.9	10.7	12.3	6.6
CCCCCCCCc1ccc(CCC(N)(CO)CO)cc1 [Fingolimod]	7.4	5	6.4	6.1	8.3	5.8	7.1	5.3	7	5.8	7.2	5.7
O=c1[nH]c(=O)n([C@H]2C[C@H](O)[C@@H](CO)O2)cc1F [Floxuridine]	8.25	14.1	4	6.6	3.5	6.7	< 0	0.6	3.5	3.7	0.1	2.3
O=C(NOCCO)c1ccc2cncn2c1Nc1ccc(I)cc1F [GDC-0623]	1.4	1.5	0.4	1.5	6.9	< 0	< 0	10	9	1.8	7.4	< 0
CCOC(=O)CCNc1cc(N2CCc3ccccc3CC2)nc(-c2ccccn2)n1 [GSK-J4]	5.3	7.4	< 0	11.7	< 0	0.2	0.7	2.2	0.3	< 0	< 0	< 0
Cc1cc(Nc2cc(CN3CCOCC3)c3nc(C)c(Cc4ccc(Cl)cc4F)n3n2)n[nH]1 [Gandotinib]	5.2	5.6	6.6	5.1	8.6	5.25	7	2.7	7.2	7.1	7.4	4.6
CC(C)c1cc(-c2n[nH]c(=O)n2-c2ccc3c(ccn3C)c2)c(O)cc1O [Ganetespib]	11.1	1.9	< 0	10.8	14.3	13.4	13.7	12.5	14	12.9	19.5	13.6
CN(C)C1CCN(C(=O)c2ccc(NC(=O)Nc3ccc(-c4nc(N5CCOCC5)nc(N5CCOCC5)n4)cc3)cc2)CC1 [Gedatolisib]	11.3	10.8	12.7	13.2	16.9	10.5	6.9	11.7	10.7	9	15.7	16.9
COc1cc2ncnc(Nc3ccc(F)c(Cl)c3)c2cc1OCCCN1CCOCC1 [Gefitinib]	4.3	3.3	7.7	4.1	18.6	3.4	3.5	3.5	10.7	10.9	15.2	13
Nc1ccn([C@@H]2O[C@H](CO)[C@@H](O)C2(F)F)c(=O)n1 [Gemcitabine]	< 0	0.8	6.1	4	21.8	5.15	19.5	7.1	13.3	9.4	9.8	14.2
CCN(CC)Cc1ccc2cc(COC(=O)Nc3ccc(C(=O)NO)cc3)ccc2c1 [Givinostat]	8.55	4.8	7.6	6.9	7.2	5.5	6	5.7	2.1	6.4	0.9	5.8
COc1cc2c(cc1-c1c(C)noc1C)ncc1[nH]c(=O)n([C@H](C)c3ccccn3)c12 [I-BET151]	10.6	3.7	5.7	10.3	8.9	3.15	8.4	6.2	9.9	4.5	3.9	5.9

SMILES	drug sensitivity score (Kuramochi; [1])	drug sensitivity score (Kuramochi; [2])	drug sensitivity score (OVSAHO; [1])	drug sensitivity score (OVSAHO; [2])	drug sensitivity score (FIMM-PDC5)	drug sensitivity score (FIMM-PDC1)	drug sensitivity score (JHOS2; [1])	drug sensitivity score (JHOS2; [2])	drug sensitivity score (FIMM-PDC7)	drug sensitivity score (FIMM-PDC3)	drug sensitivity score (FIMM-PDC4)	drug sensitivity score (FIMM-PDC6)
C=CC(=O)N1CCC[C@@H](n2nc(-c3ccc(Oc4ccccc4)cc3)c3c(N)ncnc32)C1 [Ibrutinib]	2.2	1.1	2.9	2.6	10.1	0.35	0.6	< 0	2.5	5.6	7.7	6.4
C#Cc1cccc(Nc2ncnc3cc4c(cc23)OCCOCCOCCO4)c1 [Icotinib]	0.6	1.6	0.8	0.5	12.7	0.8	< 0	1	5.3	8.6	10.5	6.1
CC(=O)[C@]1(O)Cc2c(O)c3c(c(O)c2[C@@H](O[C@H]2C[C@H](N)[C@H](O)[C@H](C)O2)C1)C(=O)c1ccccc1C3=O [Idarubicin]	5.75	6	6.8	4.8	8.7	5.1	7.2	6.9	8.8	8.1	8.2	5.7
COc1cc(C(=O)O)ccc1NC(=O)[C@@H]1N[C@@H](CC(C)(C)C)[C@](C#N)(c2ccc(Cl)cc2F)[C@H]1c1cccc(Cl)c1F [Idasanutlin]	0.95	< 0	1.1	< 0	22.5	0.5	< 0	< 0	15.7	5.2	5	15.6
O=C(Nc1ccncc1)C(=O)c1cn(Cc2ccc(Cl)cc2)c2ccccc12 [Indibulin]	5.8	< 0	6.9	2.2	13.9	8.6	6.4	4.5	4.2	6	8.8	6.5
CC(C)NC[C@@H](C(=O)N1CCN(c2ncnc3c2[C@H](C)C[C@H]3O)CC1)c1ccc(Cl)cc1 [Ipatasertib]	0.35	< 0	< 0	4.6	10.3	4.2	< 0	1.3	7.5	0.8	5.9	5.5
CC(C)C[C@H](NC(=O)CNC(=O)c1cc(Cl)ccc1Cl)B(O)O [Ixazomib]	3.55	5	5.1	2	12	13.6	13.5	7.8	16.8	17.1	13.8	19.2
CCNCCS(=O)(=O)NC[C@@]1(c2ccccc2)SC(NC(=O)C(C)(C)C)=NN1C(=O)C(C)(C)C [Litronesib]	10.7	3.1	8.2	9.3	21.2	7.8	8.5	7.7	4.3	11.2	15.2	2.8
NC(=O)N1CCC(CC(=O)N2CCC([C@H]3c4ncc(Br)cc4CCc4cc(Cl)cc(Br)c43)CC2)CC1 [Lonafarnib]	8.85	8.7	9.4	9.9	7	9.45	5.5	9	10	9.3	6.3	9.8
CCNC(=O)c1noc(-c2cc(C(C)C)c(O)cc2O)c1-c1ccc(CN2CCOCC2)cc1 [Luminespib]	13.7	4.1	< 0	11.3	22.8	13.9	15.6	12.9	19	14.5	26	15.3
O=C(Nc1cccc(NC(=O)c2cccc(O)c2O)c1)c1cccc(O)c1O [MST-312]	6.05	8.6	9.6	6.9	3.7	2.9	11.6	11.5	< 0	9	6.7	3.3
CCN(CC)CCCC(C)Nc1c2ccc(Cl)cc2nc2ccc(OC)cc12 (stereo unspecified) [Mepacrine]	12.7	10.8	15.2	11.7	18	13.6	18.8	12.1	12.3	13.8	17.1	15.9
S=c1[nH]cnc2nc[nH]c12 [Mercaptopurine]	6.45	6.8	0.9	7.3	2	3.75	0.1	< 0	< 0	< 0	< 0	< 0
CN(Cc1cnc2nc(N)nc(N)c2n1)c1ccc(C(=O)N[C@@H](CCC(=O)O)C(=O)O)cc1 [Methotrexate]	0.45	1.5	< 0	4.6	< 0	2.2	< 0	< 0	< 0	< 0	< 0	< 0
CO[C@@H]1[C@H](N(C)C(=O)c2ccccc2)C[C@H]2O[C@]1(C)n1c3ccccc3c3c4c(c5c6ccccc6n2c5c31)C(=O)NC4 [Midostaurin]	9	8.9	13.1	7.9	17.8	8.1	13.1	10.7	10.3	5.5	15.7	7.8
CNC(=O)c1nn(C)c2c1C(C)(C)Cc1cnc(Nc3ccc(N4CCN(C)CC4)cc3)nc1-2 [Milciclib]	10.3	8	8.1	9	10.9	12.7	6.3	12.4	7.9	9.9	8.2	9.1
